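Method: 48-hour compound exposure of cells in 96-well plates, five concentrations, linear interpolation of endpoints. Definition used: TGI = concentration required for complete inhibition of growth.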
Assays:
Assay in all cases: growth of human tumour cells (NCI), 48 h
SW-620 colon = system: SW-620 colon
OVCAR-5 ovarian = system: OVCAR-5 ovarian
SK-MEL-2 melanoma = system: SK-MEL-2 melanoma
BT-549 breast = system: BT-549 breast
CCRF-CEM leukemia = system: CCRF-CEM leukemia
LOX IMVI melanoma = system: LOX IMVI melanoma
ACHN renal = system: ACHN renal
MCF7 breast = system: MCF7 breast
K-562 leukemia = system: K-562 leukemia
HCT-15 colon = system: HCT-15 colon
SF-295 CNS = system: SF-295 CNS
NCI-H522 lung = system: NCI-H522 lung
SN12C renal = system: SN12C renal
SK-OV-3 ovarian = system: SK-OV-3 ovarian
SK-MEL-28 melanoma = system: SK-MEL-28 melanoma
MDA-N = system: MDA-N
M14 melanoma = system: M14 melanoma
A549 NSCLC = system: A549 NSCLC
MDA-MB-231 breast = system: MDA-MB-231 breast
OVCAR-4 ovarian = system: OVCAR-4 ovarian
OVCAR-3 ovarian = system: OVCAR-3 ovarian
EKVX NSCLC = system: EKVX NSCLC
MOLT-4 leukemia = system: MOLT-4 leukemia
MDA-MB-435 = system: MDA-MB-435
UO-31 renal = system: UO-31 renal
MALME-3M melanoma = system: MALME-3M melanoma
CAKI-1 renal = system: CAKI-1 renal
RPMI-8226 leukemia = system: RPMI-8226 leukemia
HCT-116 colon = system: HCT-116 colon
DU-145 prostate = system: DU-145 prostate
T-47D breast = system: T-47D breast
SNB-19 CNS = system: SNB-19 CNS
UACC-62 melanoma = system: UACC-62 melanoma
SR leukemia = system: SR leukemia
SK-MEL-5 melanoma = system: SK-MEL-5 melanoma
UACC-257 melanoma = system: UACC-257 melanoma
PC-3 prostate = system: PC-3 prostate
RXF 393 renal = system: RXF 393 renal
A498 renal = system: A498 renal
U251 CNS = system: U251 CNS
COLO 205 colon = system: COLO 205 colon
HCC-2998 colon = system: HCC-2998 colon
HOP-92 NSCLC = system: HOP-92 NSCLC
HL-60(TB) leukemia = system: HL-60(TB) leukemia
NCI-H460 lung = system: NCI-H460 lung
SF-539 CNS = system: SF-539 CNS
NCI-H23 lung = system: NCI-H23 lung
TK-10 renal = system: TK-10 renal
IGROV1 ovarian = system: IGROV1 ovarian
OVCAR-8 ovarian = system: OVCAR-8 ovarian
HT29 colon = system: HT29 colon
SNB-75 CNS = system: SNB-75 CNS
786-0 renal = system: 786-0 renal
SF-268 CNS = system: SF-268 CNS
NCI/ADR-RES ovarian = system: NCI/ADR-RES ovarian
NCI-H226 lung = system: NCI-H226 lung
HOP-62 NSCLC = system: HOP-62 NSCLC
KM12 colon = system: KM12 colon

For `CC(=O)OCC1OC(N2C(=O)NC(=O)C3C=C4CCCCC4=CC32)C(OC(C)=O)C1OC(C)=O` (configuration not stated), the TGI (SW-620 colon) was greater than 100 µM, the TGI (OVCAR-5 ovarian) was greater than 100 µM and the TGI (SK-MEL-2 melanoma) was greater than 100 µM. It also gave a TGI (BT-549 breast) greater than 100 µM, a TGI (CCRF-CEM leukemia) greater than 100 µM and a TGI (LOX IMVI melanoma) greater than 100 µM. For the same molecule, the TGI (ACHN renal) was greater than 100 µM, the TGI (MCF7 breast) was greater than 100 µM and the TGI (K-562 leukemia) was greater than 100 µM. It also gave a TGI (HCT-15 colon) greater than 100 µM, a TGI (SF-295 CNS) greater than 100 µM and a TGI (NCI-H522 lung) greater than 100 µM. It also gave a TGI (SN12C renal) greater than 100 µM, a TGI (SK-OV-3 ovarian) greater than 100 µM and a TGI (SK-MEL-28 melanoma) greater than 100 µM. For the same molecule, the TGI (MDA-N) was greater than 100 µM, the TGI (M14 melanoma) was greater than 100 µM and the TGI (A549 NSCLC) was greater than 100 µM. The TGI (MDA-MB-231 breast) was greater than 100 µM, the TGI (OVCAR-4 ovarian) was greater than 100 µM and the TGI (OVCAR-3 ovarian) was greater than 100 µM. The TGI (EKVX NSCLC) was greater than 100 µM, the TGI (MOLT-4 leukemia) was greater than 100 µM and the TGI (MDA-MB-435) was greater than 100 µM. It also gave a TGI (UO-31 renal) greater than 100 µM, a TGI (MALME-3M melanoma) greater than 100 µM and a TGI (CAKI-1 renal) greater than 100 µM. For the same molecule, the TGI (RPMI-8226 leukemia) was greater than 100 µM, the TGI (HCT-116 colon) was greater than 100 µM and the TGI (DU-145 prostate) was greater than 100 µM. For the same molecule, the TGI (T-47D breast) was greater than 100 µM, the TGI (SNB-19 CNS) was greater than 100 µM and the TGI (UACC-62 melanoma) was greater than 100 µM. For the same molecule, the TGI (SR leukemia) was greater than 100 µM, the TGI (SK-MEL-5 melanoma) was greater than 100 µM and the TGI (UACC-257 melanoma) was greater than 100 µM. The TGI (PC-3 prostate) was greater than 100 µM, the TGI (RXF 393 renal) was greater than 100 µM and the TGI (A498 renal) was greater than 100 µM. The TGI (U251 CNS) was greater than 100 µM, the TGI (COLO 205 colon) was greater than 100 µM and the TGI (HCC-2998 colon) was greater than 100 µM. The TGI (HOP-92 NSCLC) was greater than 100 µM, the TGI (HL-60(TB) leukemia) was greater than 100 µM and the TGI (NCI-H460 lung) was greater than 100 µM. For the same molecule, the TGI (SF-539 CNS) was greater than 100 µM, the TGI (NCI-H23 lung) was greater than 100 µM and the TGI (TK-10 renal) was greater than 100 µM. It also gave a TGI (IGROV1 ovarian) greater than 100 µM.
`COc1ccc(/C=C2/SC(c3ccc(Cl)cc3)N(NC(=O)CCCCCCCCC(=O)NN3C(=O)/C(=C\c4ccc(OC)c(OC)c4)SC3c3ccc(Cl)cc3)C2=O)cc1OC` (configuration not stated) gave a TGI (SW-620 colon) greater than 100 µM, a TGI (OVCAR-8 ovarian) greater than 100 µM and a TGI (OVCAR-5 ovarian) greater than 100 µM. The TGI (SK-MEL-2 melanoma) was greater than 100 µM, the TGI (BT-549 breast) was greater than 100 µM and the TGI (ACHN renal) was greater than 100 µM. For the same molecule, the TGI (MCF7 breast) was greater than 100 µM, the TGI (HT29 colon) was greater than 100 µM and the TGI (K-562 leukemia) was greater than 100 µM. It also gave a TGI (HCT-15 colon) greater than 100 µM, a TGI (SNB-75 CNS) greater than 100 µM and a TGI (SF-295 CNS) of 59.9 µM. It also gave a TGI (SN12C renal) greater than 100 µM, a TGI (SK-OV-3 ovarian) greater than 100 µM and a TGI (SK-MEL-28 melanoma) greater than 100 µM. It also gave a TGI (MDA-N) of 98.4 µM, a TGI (786-0 renal) of 76.8 µM and a TGI (M14 melanoma) greater than 100 µM. The TGI (A549 NSCLC) was greater than 100 µM, the TGI (MDA-MB-231 breast) was greater than 100 µM and the TGI (OVCAR-4 ovarian) was greater than 100 µM. For the same molecule, the TGI (OVCAR-3 ovarian) was greater than 100 µM, the TGI (EKVX NSCLC) was 78.7 µM and the TGI (MOLT-4 leukemia) was greater than 100 µM. It also gave a TGI (SF-268 CNS) greater than 100 µM, a TGI (MDA-MB-435) greater than 100 µM and a TGI (UO-31 renal) greater than 100 µM. For the same molecule, the TGI (NCI/ADR-RES ovarian) was greater than 100 µM, the TGI (NCI-H226 lung) was greater than 100 µM and the TGI (CAKI-1 renal) was greater than 100 µM. For the same molecule, the TGI (RPMI-8226 leukemia) was greater than 100 µM, the TGI (HCT-116 colon) was greater than 100 µM and the TGI (HOP-62 NSCLC) was 57.9 µM. It also gave a TGI (DU-145 prostate) greater than 100 µM, a TGI (T-47D breast) greater than 100 µM and a TGI (SNB-19 CNS) greater than 100 µM. For the same molecule, the TGI (UACC-62 melanoma) was 89.3 µM, the TGI (KM12 colon) was greater than 100 µM and the TGI (SR leukemia) was greater than 100 µM. It also gave a TGI (SK-MEL-5 melanoma) greater than 100 µM, a TGI (UACC-257 melanoma) greater than 100 µM and a TGI (PC-3 prostate) greater than 100 µM. The TGI (RXF 393 renal) was 70.7 µM, the TGI (A498 renal) was 82.1 µM and the TGI (U251 CNS) was greater than 100 µM. The TGI (COLO 205 colon) was greater than 100 µM, the TGI (HCC-2998 colon) was greater than 100 µM and the TGI (HOP-92 NSCLC) was 48.8 µM. For the same molecule, the TGI (NCI-H460 lung) was greater than 100 µM, the TGI (SF-539 CNS) was 85.5 µM and the TGI (NCI-H23 lung) was 47.1 µM. For the same molecule, the TGI (TK-10 renal) was greater than 100 µM and the TGI (IGROV1 ovarian) was 59.8 µM.

Source: PubChem BioAssay (NCI)
